Consider two compounds from US20110033418A1, “TREATMENT OF DISEASES CAUSED BY VIRAL INFECTION” (priority 2009, published 2011).

Test [1] concerns Ljungan virus (LV). Nature of the test: Diabetes in male CD-1 mice infected with LV in utero and subjected to stress (glucose tolerance test, abdominal fat, serum insulin). The format is in vivo. The protocol: Animals CD-1 (ICR) mice were obtained from Br Charles River laboratories, Germany. Glucose tolerance test was performed to diagnose diabetes. In this test 2 g glucose per kg body weight was injected intraperitoneally (as 100 mg glucose/ml solution). Blood glucose was measured (Medisence Precision PCx Abbott Laboratories) before the injection of glucose and after 60 and 120 min. Diabetes was defined as a blood glucose level above 200 mg/dL at 120 min. Abdominal fat in male mice was measured by dissecting out the bilateral scrotal fat cushion. The total weight of both fat cushions was used.
Analysis of insulin Serum insulin was measured using a rat insulin ELISA kit (Mercodia AB).
Transmission of LV to CD-1 mice followed by antiviral treatments Pregnant outbred CD1 mice were infected intraperitoneally with 1000 ID50 (determined by intra cerebral titration in suckling mice) units of LV145 SL two days after conception. Control animals were given an injection of saline. All female mice were kept in individual cages and followed for the development of gestational diabetes, pregnancy outcome and development of diabetes in the offspring. In all the pregnant mice mild stress was induced by adding glucose (100 g/L) to drinking water, performing weekly weights and a glucose tolerance test at the end of the pregnancy. At five weeks of age antiviral therapy to the male offsprings, using LV-specific murine antiserum or the oral antiviral compound Pleconaril (200 mg per kg body weight) or a combination of both, were given once a day for four consecutive days. The control groups of infected and uninfected male offsprings were untreated. From the age of 25 days all mice were subjected to stress by placing 4-5 male mice from different litters in the same cage. At 15 weeks of age the animals were subjected to a glucose tolerance test. Serum insulin levels and abdominal fat were measured.
Statistics The glucose tolerance test in the CD-1 mice was evaluated by Fisher's exact one sided test. Otherwise statistical significance in the CD-1 mice was evaluated by Student's t-test. P values <0.05 were considered significant. Data are presented as means±s.e.m.

The test system of test [2] is Ljungan virus (LV). The settings on record: number of 7 mice; 200 mg per kg orally daily for 50 days from day 35; terminated at day 120.
Procedure: An ALS mouse model was used in which the mice are transgenic for superoxide dismutase 1 (SOD1). […] The inventors treated the LV infection in these mice using two different antiviral compounds separately and in combination. One group of mice was kept as a control.
Groups of seven 35 day old B6SJL-Tg-SOD1-G93 mice were treated with two antiviral compounds, Pleconaril and Ribavirin (200 mg of each per kg body weight), orally with a tube connected to a syringe daily for 50 consecutive days. Mice were observed every day for signs of paralysis.
The experiment was terminated at day 120 when all untreated animals were expected to have developed severe paralysis and death.
A further test concerns LV. Nature of the test: Inhibitory effect on LV in tissue culture. The format is cell-based. An excerpt: Antiviral agents Pleconaril (VP-63843) a novel, orally bio-available, broad spectrum anti-picorna-viral agent developed as a therapeutic tool in entero- and rhino viral infections, was used alone or in combination with specific antiserum for intervention.

The structures appear in SMILES notation.

On to `Cc1cc(CCCOc2c(C)cc(-c3noc(C(F)(F)F)n3)cc2C)on1` [Pleconaril, (3-[3,5-dimethyl-4-[[3-(3-methyl-5-isoxazolyl)propyl]oxy]phenyl]-5-(trifluoromethyl)-1,2,4-oxadiazole)], for which the “No. with blood glucose >200 mg/dL at 120 min (percent of group)” value in the test with Ljungan virus (LV) [1] (glucose tolerance test at 15 weeks of age, LV infected, stressed male CD-1 mice) was 9%. Moreover, in the test on Ljungan virus (LV) [1] (glucose tolerance test, 2 g glucose per kg i.p., means±s.e.m.), the “Blood glucose at 60 min” value was 211 ± 23.8 mg/dL. Also, in the test on Ljungan virus (LV) [1] (number of mice, glucose tolerance test at 15 weeks of age, LV infected, stressed male CD-1 mice, treatment once a day for four days at five weeks of age), the “No. with blood glucose >200 mg/dL at 120 min” value stood at 1. Further, the Serum insulin in the test with Ljungan virus (LV) [1] (rat insulin ELISA, means±s.e.m.) came out at 4.15 ± 1.52 µg/L. Besides, the Abdominal fat in the test with Ljungan virus (LV) [1] (total weight of bilateral scrotal fat cushions, means±s.e.m.) was determined as 2.1 ± 0.31 g. In addition, in the test with Ljungan virus (LV) [2], the “Mice with paralysis (including death)” value worked out at 5 and the Mice without paralysis turned out to be 2. In the test on LV, the “inhibitory effect on LV” value is listed as “some inhibitory effect on LV”.

Turning to `NC(=O)c1ncn([C@@H]2O[C@H](CO)[C@@H](O)[C@H]2O)n1` [Ribavirin, 1-[(2R,3R,4S,5R)-3,4-dihydroxy-5-(hydroxymethyl)oxolan-2-yl]-1H-1,2,4-triazole-3-carboxamide], in the test with Ljungan virus (LV) [2], the “Mice with paralysis (including death)” value was determined as 6 and the Mice without paralysis was found to be 1.
